In the assay the target is T1, LRRK2 (Homo sapiens, UniProt Q5S007, G2019S).
T1 construct: purchased Invitrogen PV4882
The assay is described as follows: In Vitro LRRK2 LabChip Assay (LRRK2 Ki). In kind it is biochemical.

The Ki is a measure of affinity in units of concentration, obtained from inhibition or displacement.

T1 sequence (Q5S007 whole entry G2019S): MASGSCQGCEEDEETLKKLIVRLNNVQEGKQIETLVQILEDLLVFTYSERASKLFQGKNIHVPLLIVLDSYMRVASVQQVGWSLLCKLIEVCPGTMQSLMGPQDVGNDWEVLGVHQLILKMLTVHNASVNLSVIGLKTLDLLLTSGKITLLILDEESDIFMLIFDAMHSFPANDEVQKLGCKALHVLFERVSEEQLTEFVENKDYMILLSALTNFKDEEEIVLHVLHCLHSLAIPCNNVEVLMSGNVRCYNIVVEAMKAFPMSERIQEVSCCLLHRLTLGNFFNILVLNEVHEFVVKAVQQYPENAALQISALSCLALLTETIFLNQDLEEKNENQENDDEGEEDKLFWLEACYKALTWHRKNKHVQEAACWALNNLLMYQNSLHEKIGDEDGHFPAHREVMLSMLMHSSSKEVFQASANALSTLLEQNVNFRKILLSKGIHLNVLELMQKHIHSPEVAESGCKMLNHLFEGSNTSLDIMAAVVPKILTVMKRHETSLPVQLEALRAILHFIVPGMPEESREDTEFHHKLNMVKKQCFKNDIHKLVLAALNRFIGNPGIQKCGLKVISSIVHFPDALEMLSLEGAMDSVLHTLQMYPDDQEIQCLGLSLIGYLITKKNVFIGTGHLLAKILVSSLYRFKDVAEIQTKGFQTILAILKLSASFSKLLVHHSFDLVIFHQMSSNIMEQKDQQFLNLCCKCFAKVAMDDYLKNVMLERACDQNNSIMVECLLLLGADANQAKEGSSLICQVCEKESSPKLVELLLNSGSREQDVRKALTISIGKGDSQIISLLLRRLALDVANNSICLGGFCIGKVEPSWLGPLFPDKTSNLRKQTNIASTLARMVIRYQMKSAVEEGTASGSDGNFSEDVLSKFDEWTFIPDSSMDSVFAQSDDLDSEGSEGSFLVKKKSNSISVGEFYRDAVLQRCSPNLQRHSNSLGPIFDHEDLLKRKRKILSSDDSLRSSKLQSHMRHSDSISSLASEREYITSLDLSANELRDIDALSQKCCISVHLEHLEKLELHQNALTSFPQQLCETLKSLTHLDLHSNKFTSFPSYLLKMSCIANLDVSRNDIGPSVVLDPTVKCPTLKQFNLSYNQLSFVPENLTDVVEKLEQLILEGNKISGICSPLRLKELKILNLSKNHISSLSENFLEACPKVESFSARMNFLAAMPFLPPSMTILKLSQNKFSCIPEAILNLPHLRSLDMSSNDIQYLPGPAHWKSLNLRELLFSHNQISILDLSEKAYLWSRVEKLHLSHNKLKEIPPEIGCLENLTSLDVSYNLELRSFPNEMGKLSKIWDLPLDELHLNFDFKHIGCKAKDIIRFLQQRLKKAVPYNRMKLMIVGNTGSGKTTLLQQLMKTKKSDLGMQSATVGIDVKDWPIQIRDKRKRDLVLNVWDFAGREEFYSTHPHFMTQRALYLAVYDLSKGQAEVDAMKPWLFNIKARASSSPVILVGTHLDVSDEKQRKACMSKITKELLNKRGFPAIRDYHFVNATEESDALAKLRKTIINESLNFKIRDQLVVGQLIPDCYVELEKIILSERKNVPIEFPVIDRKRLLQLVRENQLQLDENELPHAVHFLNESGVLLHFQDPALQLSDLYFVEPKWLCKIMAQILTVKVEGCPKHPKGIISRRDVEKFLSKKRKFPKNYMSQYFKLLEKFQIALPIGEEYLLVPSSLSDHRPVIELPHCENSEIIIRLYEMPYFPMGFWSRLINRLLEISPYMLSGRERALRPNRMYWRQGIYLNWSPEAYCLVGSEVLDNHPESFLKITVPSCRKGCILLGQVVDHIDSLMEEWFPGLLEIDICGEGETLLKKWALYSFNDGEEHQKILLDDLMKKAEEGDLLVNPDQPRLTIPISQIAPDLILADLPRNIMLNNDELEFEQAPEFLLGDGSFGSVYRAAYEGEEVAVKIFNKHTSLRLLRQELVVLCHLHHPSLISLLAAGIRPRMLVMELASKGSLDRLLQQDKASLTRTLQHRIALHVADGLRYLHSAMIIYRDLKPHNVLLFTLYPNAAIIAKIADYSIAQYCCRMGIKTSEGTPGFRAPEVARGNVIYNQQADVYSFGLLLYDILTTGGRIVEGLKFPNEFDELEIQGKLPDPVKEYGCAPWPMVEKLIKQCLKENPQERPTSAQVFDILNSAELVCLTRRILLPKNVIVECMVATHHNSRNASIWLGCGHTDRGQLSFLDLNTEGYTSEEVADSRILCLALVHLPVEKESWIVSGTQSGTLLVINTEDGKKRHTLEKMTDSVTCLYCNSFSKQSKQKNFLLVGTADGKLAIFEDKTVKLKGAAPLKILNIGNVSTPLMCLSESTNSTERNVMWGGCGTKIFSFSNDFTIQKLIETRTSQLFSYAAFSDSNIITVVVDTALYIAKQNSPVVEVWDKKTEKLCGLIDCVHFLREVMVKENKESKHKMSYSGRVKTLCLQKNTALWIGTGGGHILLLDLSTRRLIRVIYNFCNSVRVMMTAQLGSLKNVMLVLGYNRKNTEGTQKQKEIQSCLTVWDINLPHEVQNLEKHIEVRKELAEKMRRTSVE

In turn, `CNc1nc(Nc2cc(F)c(C(=O)N3CCOCC3)cc2F)ncc1C(F)(F)F` [Compound 16, [2,5-Difluoro-4-(4-methylamino-5-trifluoromethyl-pyrimidin-2-ylamino)-phenyl]-morpholin-4-yl-methanone] had a Ki (Table 5 compounds (formula I)) of 24.2 nM.

Take `CNc1nc(Nc2ccc(C(=O)N3CCOCC3)cc2OC(F)F)ncc1C(F)(F)F` [Compound 47, [3-Difluoromethoxy-4-(4-methylamino-5-trifluoromethyl-pyrimidin-2-ylamino)-phenyl]-morpholin-4-yl-methanone]: the inhibition constant (Ki) (Table 5 compounds (formula I)) was determined as 5.98 nM.

In turn, `CCNc1nc(Nc2ccc(C(=O)N3CCC(F)(F)C3)c3c2OCCO3)ncc1C(F)(F)F` [Compound 6] displayed a Ki (Table 6 compounds (formula II/III, fused ring)) of 0.636 nM.

The record behind these values is patent publication US8809331B2 (Genentech, Inc., priority 2011, dated 2014).
